In publication PMC9037210, “Novel 3-(6-methylpyridin-2-yl)coumarin-based chalcones as selective inhibitors of cancer-related carbonic anhydrases IX and XII endowed with anti-proliferative activity” (Journal of Enzyme Inhibition and Medicinal Chemistry, 2022):
Read-outs that look alike come from different tables or passages of the source.

Tests used:
hCA XII = molecular target: T1, hCA XII (Homo sapiens, UniProt O43570); test: stopped-flow CO2 hydrase assay, hCA XII; format: biochemical; settings: for Selectivity index (SI) (KI off-target CA/KI target CA) Towards hCA XII: ratio of KI for hCA I and II relative to hCA XII; for Ki: stopped-flow, incubation time of 6 h, mean of three assays, read-out: KI CA XII
T1 construct: made in house
Protocol: (§1) The newly synthesised MPCs (3 and 5a–o) were assessed for their CA inhibition activity employing the stopped-flow CO2 hydrase assay[29] for constitutional hCA (I/II) isoforms and cancer-linked hCA (IX/XII) isoforms.
(§2) The CA inhibition activity for the herein reported MPC derivatives was evaluated against the hCA isoforms I, II, IX, and XII using stopped-flow CO2 hydrase test[7]^,[33–36] (see the Supplementary Material).
(§3) Carbonic anhydrase inhibition assay
(§4) The carbonic anhydrase catalyzed CO2 hydration actions for all coumarin-based […]
(§5) Photophysics stopped-flow. The enzymes are recombinant proteins prepared in our lab. Phenol red (at a concentration of 0.2 mM) has been used as indicator, working at […]
(§6) mM Na2SO4 (for maintaining constant the ionic strength), following the initial rates of the CA-catalyzed CO2 hydration reaction for a period of 10-100 s. The CO2 concentrations ranged from 1.7 to 17 mM for the determination of the kinetic parameters and inhibition constants. For each inhibitor at least six traces of the initial 5-10% of the reaction have been used for determining the initial velocity. The uncatalyzed rates were determined in the same manner and subtracted from the total observed rates. Stock solutions of inhibitor (0.1 mM) were prepared in distilled-deionized water and dilutions up to 0.01 nM were done thereafter with the assay buffer. Inhibitor and enzyme solutions were preincubated together for 6 hrs. at room temperature prior to assay, in order to allow for the formation of the E-I complex. The inhibition constants were obtained by non-linear least-squares methods using PRISM 3 and the Cheng-Prusoff equation, and represent the mean from at least three different

hCA II [1] = molecular target: T2, hCA II (Homo sapiens, UniProt P00918); test: stopped-flow CO2 hydrase assay, hCA II; format: biochemical; settings: incubation time of 6 h, mean of three assays, read-out: KI CA II
T2 construct: made in house
Protocol: as §1, §2, §3, §4, §5, §6

hCA I [2] = molecular target: T3, hCA I (Homo sapiens, UniProt P00915); test: stopped-flow CO2 hydrase assay, hCA I; format: biochemical
T3 construct: made in house
Protocol: as §1, §2, §3, §4, §5, §6

hCA IX [3] = molecular target: T4, hCA IX (Homo sapiens, UniProt Q16790); test: stopped-flow CO2 hydrase assay, hCA IX; format: biochemical; settings: for Selectivity index (SI) (KI off-target CA/KI target CA) Towards hCA IX: ratio of KI for hCA I and II relative to hCA IX; for Ki: stopped-flow, incubation time of 6 h, mean of three assays, read-out: KI CA IX; for fold decreased inhibitory activity towards hCA IX: relative to phenyl analogue 5a
T4 construct: made in house
Protocol: as §1, §2, §3, §4, §5, §6

MCF7 = test: NCI single (10 µM) dose SRB screening, MCF7; format: cell-based, human; settings: 10 µM single dose, MCF7, Breast cancer
Protocol: (§7) Following NCI protocol, sixteen MPCs were screened for their potential in vitro anticancer effects against human 59 cancer cell panels including prostate, leukaemia melanoma, colon, breast, CNS, renal, NSCLC, and ovarian cancers by National Cancer Institute (USA)[30].
(§8) The antiproliferative activities of MPC 3 and MPCs 5a–o were first evaluated in a 10 µM dose assay, with SRB assay used to determine cell survival and proliferation. […] The results of the cell growth inhibitory activities for MPCs 5g and 5l towards the different treated tumour cell lines were presented as GI% and presented in Table 3.
(§9) The anticancer test was conducted using the methods of the Drug Evaluation Branch, National Cancer Institute, Bethesda, MD, using 59 human tumour cell lines derived from nine human tissues. The GI50, TGI, and LC50 dose-response parameters were calculated for each medication.

SNB-75 = test: NCI single (10 µM) dose SRB screening, SNB-75; format: cell-based, human; settings: 10 µM single dose, SNB-75, CNS cancer
Protocol: as §7, §8, §9

LOX IMVI = test: NCI single (10 µM) dose SRB screening, LOX IMVI; format: cell-based, human; settings: 10 µM single dose, Melanoma
Protocol: as §7, §8, §9

MDA-MB-435 = test: NCI single (10 µM) dose SRB screening, MDA-MB-435; format: cell-based, human; settings: 10 µM single dose, MDA-MB-435, Melanoma
Protocol: as §7, §8, §9

hCA II [4] = molecular target: T2, hCA II; settings: Figure 1; read-out: hCA II inhibition; cited from earlier work
hCA I [5] = molecular target: T3, hCA I; settings: Figure 1; read-out: hCA I inhibition; cited from earlier work
hCA IX [6] = molecular target: T4, hCA IX; settings: Figure 1; read-out: hCA IX inhibition; cited from earlier work
[7] = stopped-flow, incubation time of 6 h, mean of three assays, read-out: KI CA I

T1 sequence (O43570 25-354): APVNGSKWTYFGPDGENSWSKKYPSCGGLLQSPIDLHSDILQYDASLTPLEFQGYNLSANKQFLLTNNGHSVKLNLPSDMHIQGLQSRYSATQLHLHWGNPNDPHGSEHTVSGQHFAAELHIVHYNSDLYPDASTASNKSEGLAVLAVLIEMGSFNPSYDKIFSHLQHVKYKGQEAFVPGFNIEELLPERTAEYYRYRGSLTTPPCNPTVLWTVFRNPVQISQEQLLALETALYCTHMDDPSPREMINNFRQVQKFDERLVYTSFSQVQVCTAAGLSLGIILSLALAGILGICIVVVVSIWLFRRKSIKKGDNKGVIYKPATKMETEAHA
T3 sequence (P00915 whole entry): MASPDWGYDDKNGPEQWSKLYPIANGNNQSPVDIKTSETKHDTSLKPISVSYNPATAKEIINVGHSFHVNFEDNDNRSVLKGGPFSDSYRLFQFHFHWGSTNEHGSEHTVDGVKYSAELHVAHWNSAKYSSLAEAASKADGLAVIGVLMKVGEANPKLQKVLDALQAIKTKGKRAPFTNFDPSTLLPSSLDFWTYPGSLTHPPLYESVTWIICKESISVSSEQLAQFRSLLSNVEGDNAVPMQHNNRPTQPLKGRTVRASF

Compound	Selectivity index (SI) (KI off-target CA/KI target CA) Towards hCA XII (hCA XII)	Ki (hCA XII) [µM]	Ki (hCA II [1]) [µM]	Ki (hCA I [2]; [7]) [µM]	Selectivity index (SI) (KI off-target CA/KI target CA) Towards hCA IX (hCA IX [3])	Ki (hCA IX [3]) [µM]	GI % (MCF7) [%]	GI % (SNB-75) [%]	GI % (LOX IMVI) [%]	melting point [°C]	GI % (MDA-MB-435) [%]	fold decreased inhibitory activity towards hCA IX (hCA IX [3])	Ki (hCA I [2]) [µM]	Ki (hCA II [4]) [µM]	Ki (hCA I [5]) [µM]	Ki (hCA IX [6]) [µM]
CC(=O)c1ccc(-c2cc3ccccc3oc2=O)nc1C [Compound 3, 3-(5-acetyl-6-methylpyridin-2-yl)-2H-chromen-2-one]	>147.06	0.68	> 100	> 100	>105.26	0.95	–	–	–	–	–	–	–	–	–	–
Cc1nc(-c2cc3ccccc3oc2=O)ccc1C(=O)/C=C/c1ccccc1 [Compound 5a, 3-(6-Methyl-5-[(2E)-3-phenylprop-2-enoyl]pyridin-2-yl)-2H-chromen-2-one]	>19.61	5.1	> 100	> 100	>66.67	1.5	–	–	–	–	–	–	–	–	–	–
Cc1nc(-c2cc3ccccc3oc2=O)ccc1C(=O)/C=C/c1ccc(F)cc1 [Compound 5b, 3-(5-[(2E)-3-(4-Fluorophenyl)prop-2-enoyl]-6-methylpyridin-2-yl)-2H-chromen-2-one]	>37.04	2.7	> 100	> 100	>29.41	3.4	49	39	46	–	–	–	–	–	–	–
Cc1nc(-c2cc3ccccc3oc2=O)ccc1C(=O)/C=C/c1ccc(Cl)cc1 [Compound 5c, 3-(5-[(2E)-3-(4-Chlorophenyl)prop-2-enoyl]-6-methylpyridin-2-yl)-2H-chromen-2-one]	>52.63	1.9	> 100	> 100	>17.24	5.8	–	–	–	223 to 225	–	–	–	–	–	–
Cc1ccc(/C=C/C(=O)c2ccc(-c3cc4ccccc4oc3=O)nc2C)cc1 [Compound 5d, 3-(6-Methyl-5-[(2E)-3-(4-methylphenyl)prop-2-enoyl]pyridin-2-yl)-2H-chromen-2-one]	>12.19	8.2	> 100	> 100	>23.25	4.3	–	–	–	206 to 208	–	–	–	–	–	–
Cc1nc(-c2cc3ccccc3oc2=O)ccc1C(=O)/C=C/c1ccc([N+](=O)[O-])cc1 [Compound 5e, 3-(6-Methyl-5-[(2E)-3-(4-nitrophenyl)prop-2-enoyl]pyridin-2-yl)-2H-chromen-2-one]	>9.17	10.9	> 100	> 100	>6.10	16.4	–	–	–	202 to 204	–	–	–	–	–	–
Cc1nc(-c2cc3ccccc3oc2=O)ccc1C(=O)/C=C/c1ccc(N(C)C)cc1 [Compound 5f, 3-(5-[(2E)-3-[4-(Dimethylamino)phenyl]prop-2-enoyl]-6-methylpyridin-2-yl)-2H-chromen-2-one]	>14.92	6.7	> 100	> 100	>11.76	8.5	–	–	–	–	80	–	–	–	–	–
COc1ccc(/C=C/C(=O)c2ccc(-c3cc4ccccc4oc3=O)nc2C)cc1 [Compound 5h, 3-(5-[(2E)-3-(4-Methoxyphenyl)prop-2-enoyl]-6-methylpyridin-2-yl)-2H-chromen-2-one]	>35.71	2.8	> 100	> 100	>9.34	10.7	–	–	–	174 to 175	–	–	–	–	–	–
COc1cc(/C=C/C(=O)c2ccc(-c3cc4ccccc4oc3=O)nc2C)cc(OC)c1OC [Compound 5i, 3-(6-Methyl-5-[(2E)-3-(3,4,5-trimethoxyphenyl)prop-2-enoyl]pyridin-2-yl)-2H-chromen-2-one]	>7.75	12.9	> 100	> 100	>3.65	27.4	–	–	–	186 to 188	–	–	–	–	–	–
Cc1nc(-c2cc3ccccc3oc2=O)ccc1C(=O)/C=C/c1ccc2c(c1)OCO2 [Compound 5j, 3-(5-[(2E)-3-(2H-1,3-Benzodioxol-5-yl)prop-2-enoyl]-6-methylpyridin-2-yl)-2H-chromen-2-one]	>14.71	6.8	> 100	> 100	>18.87	5.3	–	–	–	178 to 180	–	about 3.5 fold	–	–	–	–
Cc1nc(-c2cc3ccccc3oc2=O)ccc1C(=O)/C=C/c1cccc2ccccc12 [Compound 5k, 3-(6-Methyl-5-[(2E)-3-(naphthalen-1-yl)prop-2-enoyl]pyridin-2-yl)-2H-chromen-2-one]	>4.67	21.4	> 100	> 100	>2.71	36.9	–	–	–	204 to 206	–	~23 fold	–	–	–	–
Cc1nc(-c2cc3ccccc3oc2=O)ccc1C(=O)/C=C/c1cccs1 [Compound 5m, 3-(6-Methyl-5-[(2E)-3-(thiophen-2-yl)prop-2-enoyl]pyridin-2-yl)-2H-chromen-2-one]	–	–	> 100	–	–	–	–	–	–	–	–	–	> 100	–	–	–
Cc1ccc(/C=C/C(=O)c2ccc(-c3cc4ccccc4oc3=O)nc2C)o1 [Compound 5n, 3-(6-Methyl-5-[(2E)-3–(5-methylfuran-2-yl)prop-2-enoyl]pyridin-2-yl)-2H-chromen-2-one]	>52.63	1.9	> 100	> 100	>66.67	1.5	40	–	39	–	–	–	–	–	–	–
Cc1nn(-c2ccccc2)cc1/C=C/C(=O)c1ccc(-c2cc3ccccc3oc2=O)nc1C [Compound 5o, 3-(6-Methyl-5-[(2E)-3–(3-methyl-1-phenyl-1H-pyrazol-4-yl)prop-2-enoyl]pyridin-2-yl)-2H-chromen-2-one]	>5.62	17.8	> 100	> 100	>5.15	19.4	–	–	–	204 to 206	–	–	–	–	–	–
O=c1ccc2cc(O)ccc2o1 [III]	–	–	–	–	–	–	–	–	–	–	–	–	–	> 100	> 100	–
O=C(Nc1ccc(Cl)cc1)c1cc2ccc(O)cc2oc1=O [IV]	–	–	–	–	–	–	–	–	–	–	–	–	–	> 100	> 100	–
O=Cc1ccccc1OCc1cn(CCCOc2ccc3ccc(=O)oc3c2)nn1 [V]	–	–	–	–	–	–	–	–	–	–	–	–	–	–	> 10	0.13
